Experiments:
Histamine H3 receptor [1] = target: Histamine H3 receptor (Homo sapiens, UniProt Q9Y5N1); assay: Antagonist activity at human histamine H3 receptor expressed in CHOK1 cells assessed as inhibition of GTPgammaS binding; format: functional, cell-based, CHO-K1
Rattus norvegicus [2] = assay: Ex vivo binding affinity to histamine H3 receptor in rat cerebral cortex using [3H]-R-alpha-ethylhistamine at 0.3 mg/kg, po after 3 hrs by HPLC analysis; format: functional
Histamine H3 receptor [3] = target: T1, Histamine H3 receptor (Rattus norvegicus, UniProt Q9QYN8); assay: Displacement of [3H]-R-alpha-ethylhistamine from histamine H3 receptor in rat cerebral cortical tissue membranes after 45 mins by liquid scintillation spectrometry
T1 sequence (Q9QYN8 whole entry): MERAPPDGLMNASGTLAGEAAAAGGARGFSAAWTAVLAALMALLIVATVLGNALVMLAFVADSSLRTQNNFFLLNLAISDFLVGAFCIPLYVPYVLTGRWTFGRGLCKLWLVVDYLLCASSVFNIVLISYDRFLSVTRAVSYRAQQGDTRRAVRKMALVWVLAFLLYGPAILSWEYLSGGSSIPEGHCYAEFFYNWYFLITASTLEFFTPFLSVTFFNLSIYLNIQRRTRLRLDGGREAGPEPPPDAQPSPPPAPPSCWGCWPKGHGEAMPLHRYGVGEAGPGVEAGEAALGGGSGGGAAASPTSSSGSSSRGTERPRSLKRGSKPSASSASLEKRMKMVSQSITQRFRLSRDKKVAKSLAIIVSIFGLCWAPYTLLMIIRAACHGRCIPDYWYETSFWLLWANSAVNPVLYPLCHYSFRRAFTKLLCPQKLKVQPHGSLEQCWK

Rattus norvegicus [4] = assay: Ex vivo binding affinity to histamine H3 receptor in po dosed rat cerebral cortex using [3H]-R-alpha-ethylhistamine after 2 hrs by HPLC analysis; format: functional
Rattus norvegicus [5] = assay: Ex vivo binding affinity to histamine H3 receptor in rat cerebral cortex using [3H]-R-alpha-ethylhistamine at 3 mg/kg, po after 3 hrs by HPLC analysis; format: functional
Rattus norvegicus [6] = assay: Reversal of RAMH-induced dipsogenia in po dosed Lister Hooded rat treated 2 hrs before RAMH challenge measured after 1 hr; format: functional
Blood = assay: Drug level in rat blood at 3 mg/kg, po; format: ADME, organism-based; design: dose 3 mg/kg, route oral; details: in vivo, read-out: Drug uptake
[7] = Ratio of drug level in brain to blood in rat at 3 mg/kg, po; format: ADME, organism-based; design: dose 3 mg/kg, route oral
Rattus norvegicus [8] = assay: Reversal of RAMH-induced dipsogenia in Lister Hooded rat at 3 mg/kg, po treated 2 hrs before RAMH challenge measured after 1 hr; format: functional
Liver microsome [9] = assay: Intrinsic clearance in rat liver microsomes; format: ADME
[10] = Ratio of drug level in brain to blood in rat at 3 mg/kg, po after 1 hr; format: ADME, organism-based; design: dose 3 mg/kg, route oral
Histamine H2 receptor = Histamine H2 receptor (Homo sapiens, UniProt P25021); assay: Binding affinity to human histamine H2 receptor
Histamine H2 receptor, sequence (P25021 whole entry): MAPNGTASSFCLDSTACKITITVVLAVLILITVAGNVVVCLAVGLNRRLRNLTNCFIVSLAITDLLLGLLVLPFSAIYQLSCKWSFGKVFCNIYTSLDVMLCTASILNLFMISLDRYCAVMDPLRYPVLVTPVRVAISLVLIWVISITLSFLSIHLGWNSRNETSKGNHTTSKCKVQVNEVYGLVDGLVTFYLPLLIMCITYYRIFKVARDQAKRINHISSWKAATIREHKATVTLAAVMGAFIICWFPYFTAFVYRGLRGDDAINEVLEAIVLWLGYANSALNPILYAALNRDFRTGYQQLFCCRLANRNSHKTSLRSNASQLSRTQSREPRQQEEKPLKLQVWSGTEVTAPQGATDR

Histamine H3 receptor [11] = target: T1, Histamine H3 receptor; assay: Displacement of [3H]-R-alpha-ethylhistamine from rat histamine H3 receptor expressed in HEK293 cells after 45 mins by liquid scintillation spectrometry; format: cell-based
hERG (KCNH2) = hERG (KCNH2) (Homo sapiens, UniProt Q12809); assay: Inhibition of human ERG at 10 uM by patch clamp experiment
hERG (KCNH2), sequence (Q12809 whole entry): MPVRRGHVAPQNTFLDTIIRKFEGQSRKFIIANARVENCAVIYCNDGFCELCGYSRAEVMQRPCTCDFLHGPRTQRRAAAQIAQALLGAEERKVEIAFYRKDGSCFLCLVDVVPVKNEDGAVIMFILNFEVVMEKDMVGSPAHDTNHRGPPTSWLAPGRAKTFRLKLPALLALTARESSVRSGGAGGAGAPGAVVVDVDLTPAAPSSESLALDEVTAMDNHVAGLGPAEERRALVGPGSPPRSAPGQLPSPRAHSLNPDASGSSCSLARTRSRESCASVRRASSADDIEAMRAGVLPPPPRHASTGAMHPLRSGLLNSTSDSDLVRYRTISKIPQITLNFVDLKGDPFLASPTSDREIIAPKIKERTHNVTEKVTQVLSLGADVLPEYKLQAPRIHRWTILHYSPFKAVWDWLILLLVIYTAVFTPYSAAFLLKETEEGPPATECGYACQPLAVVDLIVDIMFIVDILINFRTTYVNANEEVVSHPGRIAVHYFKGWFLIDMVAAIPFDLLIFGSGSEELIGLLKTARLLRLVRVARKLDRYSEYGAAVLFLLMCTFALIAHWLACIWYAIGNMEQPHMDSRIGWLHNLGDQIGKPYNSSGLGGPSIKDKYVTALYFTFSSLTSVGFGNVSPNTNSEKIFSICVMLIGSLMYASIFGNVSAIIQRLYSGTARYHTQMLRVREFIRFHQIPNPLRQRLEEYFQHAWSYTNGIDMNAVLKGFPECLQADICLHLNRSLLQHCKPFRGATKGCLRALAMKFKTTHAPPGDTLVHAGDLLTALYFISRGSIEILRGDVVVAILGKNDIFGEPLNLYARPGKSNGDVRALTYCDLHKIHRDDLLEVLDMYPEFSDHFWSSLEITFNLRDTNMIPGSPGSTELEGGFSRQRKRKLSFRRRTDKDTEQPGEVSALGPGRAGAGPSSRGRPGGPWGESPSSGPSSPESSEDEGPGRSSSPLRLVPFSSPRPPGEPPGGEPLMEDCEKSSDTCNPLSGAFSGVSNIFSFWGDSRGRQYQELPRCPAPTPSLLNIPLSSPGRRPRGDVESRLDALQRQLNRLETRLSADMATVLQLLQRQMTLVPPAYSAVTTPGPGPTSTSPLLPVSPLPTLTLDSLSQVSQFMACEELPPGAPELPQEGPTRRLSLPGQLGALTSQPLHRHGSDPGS

[12] = Time dependent inhibition of CYP450 (unknown origin); format: ADME, Homo sapiens
Histamine H4 receptor = Histamine H4 receptor (Homo sapiens, UniProt Q9H3N8); assay: Binding affinity to human histamine H4 receptor
Histamine H4 receptor, sequence (Q9H3N8 whole entry): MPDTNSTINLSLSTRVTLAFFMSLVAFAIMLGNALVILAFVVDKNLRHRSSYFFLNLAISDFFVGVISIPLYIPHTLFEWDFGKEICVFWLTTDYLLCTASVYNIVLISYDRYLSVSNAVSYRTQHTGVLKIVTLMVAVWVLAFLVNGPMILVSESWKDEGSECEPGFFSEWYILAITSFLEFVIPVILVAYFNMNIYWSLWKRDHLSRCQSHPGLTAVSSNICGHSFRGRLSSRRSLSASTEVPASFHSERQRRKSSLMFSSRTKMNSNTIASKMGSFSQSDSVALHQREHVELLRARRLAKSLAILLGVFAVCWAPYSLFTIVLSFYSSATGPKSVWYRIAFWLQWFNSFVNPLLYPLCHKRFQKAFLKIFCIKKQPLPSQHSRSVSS

Histamine H1 receptor = Histamine H1 receptor (Homo sapiens, UniProt P35367); assay: Binding affinity to human histamine H1 receptor
Histamine H1 receptor, sequence (P35367 whole entry): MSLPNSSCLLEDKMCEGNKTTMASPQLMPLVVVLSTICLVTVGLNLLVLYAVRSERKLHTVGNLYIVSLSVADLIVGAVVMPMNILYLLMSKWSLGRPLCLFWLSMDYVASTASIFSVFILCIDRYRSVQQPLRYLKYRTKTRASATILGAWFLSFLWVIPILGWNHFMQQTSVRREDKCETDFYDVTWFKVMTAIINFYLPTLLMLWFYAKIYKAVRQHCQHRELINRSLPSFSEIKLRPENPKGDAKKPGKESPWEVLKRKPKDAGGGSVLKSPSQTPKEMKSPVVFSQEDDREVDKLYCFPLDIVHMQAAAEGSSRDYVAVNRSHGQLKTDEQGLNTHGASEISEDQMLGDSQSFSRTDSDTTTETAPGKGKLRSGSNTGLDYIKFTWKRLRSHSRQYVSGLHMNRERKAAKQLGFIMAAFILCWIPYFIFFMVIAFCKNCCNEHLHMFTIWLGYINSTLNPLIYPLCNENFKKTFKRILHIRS

Liver microsome [13] = assay: Intrinsic clearance in human liver microsomes; format: ADME
[14] = Aqueous solubility of the compound; format: physicochemical

Histamine H3 receptor (Homo sapiens, UniProt Q9Y5N1), sequence (Q9Y5N1 whole entry): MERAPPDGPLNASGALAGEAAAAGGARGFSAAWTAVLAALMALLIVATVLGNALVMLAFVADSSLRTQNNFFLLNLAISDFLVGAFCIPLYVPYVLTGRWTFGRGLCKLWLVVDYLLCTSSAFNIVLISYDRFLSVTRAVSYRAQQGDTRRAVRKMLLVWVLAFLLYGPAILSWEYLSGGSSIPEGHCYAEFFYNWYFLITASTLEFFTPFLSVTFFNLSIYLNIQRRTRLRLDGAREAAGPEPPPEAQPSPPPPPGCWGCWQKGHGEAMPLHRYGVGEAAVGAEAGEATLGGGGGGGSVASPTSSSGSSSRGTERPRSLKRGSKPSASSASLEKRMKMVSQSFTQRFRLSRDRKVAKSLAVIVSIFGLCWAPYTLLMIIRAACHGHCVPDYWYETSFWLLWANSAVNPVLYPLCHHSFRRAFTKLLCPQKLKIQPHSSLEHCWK

Row | SMILES | Ki (Histamine H3 receptor [1]) | Ki (Histamine H3 receptor [3]) | Activity (Rattus norvegicus [5]) | concentration (Blood) | further results
1 | c1cc(-c2ccc(Oc3ccc4c(c3)CCN(C3CCC3)CC4)nc2)[nH]n1 | 0.251 nM | 2.51 nM |  |  | Activity (Rattus norvegicus [2]): 23%
2 | CN1CCN(c2ccc(Oc3ccc4c(c3)CCN(C3CCC3)CC4)nc2)C1=O | 0.1 nM | 1 nM | 81% |  | ED50 (Rattus norvegicus [4]): 1.9 mg/kg
3 | Cc1nc(Oc2ccc3c(c2)CCN(C2CCC2)CC3)ccc1C#N | 0.2 nM | 3.98 nM | 18% |  | 
4 | CCNC(=O)c1ccc(Oc2ccc3c(c2)CCN(C2CCC2)CC3)cn1 | 0.631 nM | 3.98 nM | 62% |  | 
5 | O=C1CCCN1c1ccc(Oc2ccc3c(c2)CCN(C2CCCC2)CC3)nc1 | 0.126 nM | 0.794 nM | 88% | 550 nM | ED50 (Rattus norvegicus [6]): 0.04 mg/kg; ED50 (Rattus norvegicus [4]): 0.1 mg/kg; Kp [7]: 1
6 | CNC(=O)c1ccc(Oc2ccc3c(c2)CCN(C2CCC2)CC3)cn1 | 0.501 nM | 3.98 nM | 82% | 570 nM | ED50 (Rattus norvegicus [6]): 0.25 mg/kg; ED50 (Rattus norvegicus [4]): 0.43 mg/kg; Kp [7]: 3.4
7 | CCN(C)C(=O)c1ccc(Oc2ccc3c(c2)CCN(C2CCC2)CC3)nc1 | 0.631 nM | 10 nM | 56% | 270 nM | Activity (Rattus norvegicus [8]): 94%; CLH (Liver microsome [9]): < 3 mL/min/g; Kp at 1 h [10]: 1
8 | O=C(c1ccc(Oc2ccc3c(c2)CCN(C2CCC2)CC3)nc1)N1CCCC1 | 0.251 nM | 0.631 nM | 65% | 10 nM | Activity (Rattus norvegicus [8]): 78%; CLH (Liver microsome [9]): < 3 mL/min/g
9 | CC(C)NC(=O)c1ccc(Oc2ccc3c(c2)CCN(C2CCC2)CC3)nc1 | 0.126 nM | 0.631 nM |  |  | CLH (Liver microsome [9]): < 3 mL/min/g; Activity (Rattus norvegicus [2]): 19%
10 | NC(=O)c1ccc(Oc2ccc3c(c2)CCN(C2CCC2)CC3)nc1 | 0.501 nM | 2 nM | 81% |  | CLH (Liver microsome [9]): < 3 mL/min/g
11 | CNC(=O)c1cnc(Oc2ccc3c(c2)CCN(C2CCC2)CC3)cn1 |  | 0.832 nM | 82% | 1120 nM | Ki (Histamine H2 receptor): > 3160 nM; Ki (Histamine H3 receptor [11]): 1.12 nM; CLH (Liver microsome [9]): 1.4 mL/min/g; ED50 (Rattus norvegicus [6]): 0.02 mg/kg; ED50 (Rattus norvegicus [4]): 0.04 mg/kg; inhibition at 10 µM (hERG (KCNH2)): < 10%; IC50 [12]: > 10000 nM; Ki (Histamine H4 receptor): > 3160 nM; Ki (Histamine H1 receptor): 1580 nM; CLH (Liver microsome [13]): 1.2 mL/min/g
12 | Cc1nnc(-c2ccc(Oc3ccc4c(c3)CCN(C3CCC3)CC4)nc2)o1 | 0.158 nM | 0.501 nM | 84% | 2700 nM | ED50 (Rattus norvegicus [6]): 0.05 mg/kg; ED50 (Rattus norvegicus [4]): 0.42 mg/kg; Kp [7]: 2.8
13 | CNC(=O)c1ccc(Oc2ccc3c(c2)CCN(C2CCC2)CC3)nn1 | 1.26 nM | 7.94 nM | 79% | 700 nM | ED50 (Rattus norvegicus [6]): 0.33 mg/kg; ED50 (Rattus norvegicus [4]): 0.85 mg/kg; Kp [7]: 2.8
14 | O=C1C[C@@H](O)CN1c1ccc(Oc2ccc3c(c2)CCN(C2CCC2)CC3)nc1 | 0.2 nM | 1.58 nM | 56% |  | 
15 | CC1CCC(=O)N1c1ccc(Oc2ccc3c(c2)CCN(C2CCC2)CC3)nc1 (configuration not stated) | 0.316 nM | 2.51 nM | 52% |  | 
16 | c1cnn(-c2ccc(Oc3ccc4c(c3)CCN(C3CCC3)CC4)nc2)c1 | 0.501 nM | 3.16 nM | 73% |  | 

Row | SMILES | Ki (Histamine H3 receptor [1]) | Ki (Histamine H3 receptor [3]) | Activity (Rattus norvegicus [5]) | concentration (Blood) | further results
17 | CNC(=O)c1ccc(Oc2ccc3c(c2)CCN(C2CCC2)CC3)cc1 | 0.501 nM | 5.01 nM | 68% | 540 nM | Kp [7]: 2.5
18 | O=C1CCCCN1c1ccc(Oc2ccc3c(c2)CCN(C2CCC2)CC3)nc1 | 0.316 nM | 2.51 nM | 10% |  | 
19 | c1ccc(Oc2ccc3c(c2)CCN(C2CCC2)CC3)nc1 | 0.794 nM |  |  |  | 
20 | Cc1noc(C)c1-c1ccc(Oc2ccc3c(c2)CCN(C2CCC2)CC3)nc1 | 0.501 nM | 2.51 nM | 48% |  | 
21 | CNC(=O)c1ccc(Oc2ccc3c(c2)CCN(C2CCCC2)CC3)nc1 | 0.501 nM |  | 61% |  | 
22 | O=C(N1CCOCC1)N1CCC(Oc2ccc3c(c2)CCN(C2CCC2)CC3)CC1 |  |  | 43% |  | Activity (Rattus norvegicus [8]): 100%; ED50 (Rattus norvegicus [4]): 2 mg/kg
23 | CC(=O)c1ccc(Oc2ccc3c(c2)CCN(C2CCC2)CC3)cn1 | 0.1 nM | 0.631 nM |  |  | Activity (Rattus norvegicus [2]): 66%
24 | c1ccc(Oc2ccc3c(c2)CCN(C2CCC2)CC3)cc1 | 3.16 nM |  |  |  | 
25 | c1cncc(Oc2ccc3c(c2)CCN(C2CCC2)CC3)c1 | 2.51 nM |  |  |  | 
26 | O=C1CCN1c1ccc(Oc2ccc3c(c2)CCN(C2CCC2)CC3)nc1 | 0.0794 nM | 0.2 nM |  |  | Activity (Rattus norvegicus [2]): 21%
27 | c1cnc(Oc2ccc3c(c2)CCN(C2CCC2)CC3)nc1 | 2.51 nM |  |  |  | 
28 | c1cnc(Oc2ccc3c(c2)CCN(C2CCC2)CC3)cn1 | 1.58 nM |  |  |  | 
29 | CC(=O)Nc1ccc(Oc2ccc3c(c2)CCN(C2CCC2)CC3)nc1 | 0.2 nM | 1 nM | 89% | 1200 nM | ED50 (Rattus norvegicus [4]): 0.32 mg/kg; Kp [7]: 0.8
30 | CNC(=O)c1ccc(Oc2ccc3c(c2)CCN(C2CCC2)CC3)nc1 [GSK189254] | 0.2 nM | 2.63 nM | 100% | 880 nM | Ki (Histamine H2 receptor): > 3160 nM; Activity (Rattus norvegicus [8]): 100%; Ki (Histamine H3 receptor [11]): 0.676 nM; CLH (Liver microsome [9]): 0.5 mL/min/g; ED50 (Rattus norvegicus [6]): 0.05 mg/kg; ED50 (Rattus norvegicus [4]): 0.17 mg/kg; solubility [14]: > 10000 µg/mL; inhibition at 10 µM (hERG (KCNH2)): 36%; IC50 [12]: > 10000 nM; Ki (Histamine H4 receptor): > 3160 nM; Ki (Histamine H1 receptor): > 2510 nM; CLH (Liver microsome [13]): 0.5 mL/min/g; Kp at 1 h [10]: 1.3
31 | O=C1OCCN1c1ccc(Oc2ccc3c(c2)CCN(C2CCC2)CC3)nc1 | 0.158 nM | 0.794 nM |  |  | Activity (Rattus norvegicus [2]): 44%

— ChEMBL document CHEMBL3091402, “Identification of clinical candidates from the benzazepine class of histamine H3 receptor antagonists” (Bioorg Med Chem Lett, 2013)
